In brackets after ≈: the same amount, converted by molar mass.
Columns and labels:
Type in all cases: functional
Staphylococcus aureus [1] = assay: Antibacterial activity against Staphylococcus aureus ATCC 29213 assessed as inhibition of bacterial growth incubated for 24 hrs
Staphylococcus aureus [2] = assay: Antibacterial activity against Staphylococcus aureus clinical isolate assessed as inhibition of bacterial growth incubated for 24 hrs
Enterococcus faecalis = assay: Antibacterial activity against Enterococcus faecalis clinical isolate assessed as inhibition of bacterial growth incubated for 24 hrs
Pseudomonas aeruginosa [3] = assay: Antibacterial activity against Pseudomonas aeruginosa clinical isolate assessed as inhibition of bacterial growth incubated for 24 hrs
Pseudomonas aeruginosa [4] = assay: Antibacterial activity against Pseudomonas aeruginosa ATCC 27853 assessed as inhibition of bacterial growth incubated for 24 hrs
Staphylococcus aureus [5] = assay: Antibacterial activity against Staphylococcus aureus ATCC 25923 assessed as inhibition of bacterial growth incubated for 24 hrs
Escherichia coli [6] = assay: Antibacterial activity against Escherichia coli ATCC 25922 assessed as inhibition of bacterial growth incubated for 24 hrs
Acinetobacter baumannii = assay: Antibacterial activity against Acinetobacter baumannii clinical isolate assessed as inhibition of bacterial growth incubated for 24 hrs
Escherichia coli [7] = assay: Antibacterial activity against Escherichia coli clinical isolate assessed as inhibition of bacterial growth incubated for 24 hrs
Staphylococcus aureus [8] = assay: Antibacterial activity against methicillin resistant Staphylococcus aureus clinical isolate assessed as inhibition of bacterial growth incubated for 24 hrs
Klebsiella pneumoniae = assay: Antibacterial activity against Klebsiella pneumoniae clinical isolate assessed as inhibition of bacterial growth incubated for 24 hrs

Row | Compound | MIC (Staphylococcus aureus [1]) [µg/mL] | MIC (Staphylococcus aureus [2]) [µg/mL] | MIC (Enterococcus faecalis) [µg/mL] | MIC (Pseudomonas aeruginosa [3]) [µg/mL] | MIC (Pseudomonas aeruginosa [4]) [µg/mL] | MIC (Staphylococcus aureus [5]) [µg/mL] | MIC (Escherichia coli [6]) [µg/mL] | MIC (Acinetobacter baumannii) [µg/mL] | MIC (Escherichia coli [7]) [µg/mL] | MIC (Staphylococcus aureus [8]) [µg/mL] | MIC (Klebsiella pneumoniae) [µg/mL]
1 | O=C(O)Cc1cc2c(cc1F)c(=O)c(C(=O)O)cn2Cc1ccccn1 | 64 (≈ 180 µM) | 64 (≈ 180 µM) | 16 (≈ 44.9 µM) | 64 (≈ 180 µM) | 8 (≈ 22.5 µM) | 16 (≈ 44.9 µM) | 32 (≈ 89.8 µM) | 64 (≈ 180 µM) | 128 (≈ 359 µM) | 128 (≈ 359 µM) | 8 (≈ 22.5 µM)
2 | C=CCn1cc(C(=O)O)c(=O)c2cc(F)c(CC#N)cc21 | 4 (≈ 14 µM) | 2 (≈ 6.99 µM) | 16 (≈ 55.9 µM) | 0.5 (≈ 1.75 µM) | 4 (≈ 14 µM) | 0.5 (≈ 1.75 µM) | 0.5 (≈ 1.75 µM) | 8 (≈ 27.9 µM) | 256 (≈ 894 µM) | 0.5 (≈ 1.75 µM) | 1 (≈ 3.49 µM)
3 | CCCn1cc(C(=O)O)c(=O)c2cc(F)c(CC#N)cc21 | 4 (≈ 13.9 µM) | 4 (≈ 13.9 µM) | 32 (≈ 111 µM) | 0.5 (≈ 1.73 µM) | 2 (≈ 6.94 µM) | 0.25 (≈ 0.867 µM) | 2 (≈ 6.94 µM) | 32 (≈ 111 µM) | 8 (≈ 27.8 µM) | 1 (≈ 3.47 µM) | 1 (≈ 3.47 µM)
4 | CCCCn1cc(C(=O)O)c(=O)c2cc(F)c(CC#N)cc21 | 8 (≈ 26.5 µM) | 8 (≈ 26.5 µM) | 64 (≈ 212 µM) | 0.5 (≈ 1.65 µM) | 4 (≈ 13.2 µM) | 0.25 (≈ 0.827 µM) | 0.5 (≈ 1.65 µM) | 256 (≈ 847 µM) | 4 (≈ 13.2 µM) | 0.5 (≈ 1.65 µM) | 1 (≈ 3.31 µM)
5 | O=C(O)Cc1cc2c(cc1F)c(=O)c(C(=O)O)cn2Cc1ccccc1 | 64 (≈ 180 µM) | 32 (≈ 90.1 µM) | 32 (≈ 90.1 µM) | 32 (≈ 90.1 µM) | 8 (≈ 22.5 µM) | 16 (≈ 45 µM) | 8 (≈ 22.5 µM) | 64 (≈ 180 µM) | 64 (≈ 180 µM) | 16 (≈ 45 µM) | 4 (≈ 11.3 µM)
6 | N#CCc1cc2c(cc1F)c(=O)c(C(=O)O)cn2Cc1cc(F)ccc1F | 256 (≈ 688 µM) | 4 (≈ 10.7 µM) | 256 (≈ 688 µM) | 256 (≈ 688 µM) | 256 (≈ 688 µM) | 256 (≈ 688 µM) | 256 (≈ 688 µM) | 64 (≈ 172 µM) | 256 (≈ 688 µM) | 256 (≈ 688 µM) | 16 (≈ 43 µM)
7 | N#CCc1cc2c(cc1F)c(=O)c(C(=O)O)cn2Cc1ccc([N+](=O)[O-])cc1 | 256 (≈ 671 µM) | 256 (≈ 671 µM) | 8 (≈ 21 µM) | 4 (≈ 10.5 µM) | 32 (≈ 83.9 µM) | 32 (≈ 83.9 µM) | 128 (≈ 336 µM) | 256 (≈ 671 µM) | 256 (≈ 671 µM) | 128 (≈ 336 µM) | 8 (≈ 21 µM)

— ChEMBL document CHEMBL5506059, “Cyanomethylquinolones as a New Class of Potential Multitargeting Broad-Spectrum Antibacterial Agents” (J Med Chem, 2024)
